From patent US20250051338A1, “TYK2 DEGRADERS AND USES THEREOF” (Kymera Therapeutics, Inc., priority 2021, published 2025) come the findings set out here.

Assay type in all cases: cell-based
Assay [1] deals with T1, TYK2 (Homo sapiens, UniProt P29597). The experiment in a line: TYK2 degradation MSD assay in OCI-LY10 cells. On the set-up: endogenous in cells; host or cells: EBV-B cells. Particulars: 4 to 24 hours incubation, read-out: TYK2 MSD DC50 rating in OCI-LY10. A digest of the protocol: (§1)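 Compound-driven TYK2 loss is measured with a Meso Scale Discovery sandwich assay on whole-cell lysates. Cells are incubated 4 to 24 hours at 37° C with nine 1:3-diluted doses topping at 1 to 10 μM, and DC50 values derive from four-parameter curve fitting.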

Assay [2] has as its target T1, TYK2. The experiment in a line: TYK2 degradation MSD assay in human PBMC cells. Also on record: endogenous in cells; host or cells: human PBMC. Particulars: 4 to 24 hours incubation, read-out: TYK2 MSD DC50 rating in human PBMC. In short, it runs like this: as §1
The target in assay [3] is T1, TYK2. The experiment in a line: TYK2 degradation MSD assay in EBV-B cells. On the set-up: endogenous in cells; host or cells: EBV-B cells. To be noted: 4 to 24 hours incubation, read-out: TYK2 MSD DC50 rating in EBV-B. In short, it runs like this: as §1

Usually DC50 stands for the midpoint of the concentration-degradation curve.

T1 sequence (P29597 whole entry): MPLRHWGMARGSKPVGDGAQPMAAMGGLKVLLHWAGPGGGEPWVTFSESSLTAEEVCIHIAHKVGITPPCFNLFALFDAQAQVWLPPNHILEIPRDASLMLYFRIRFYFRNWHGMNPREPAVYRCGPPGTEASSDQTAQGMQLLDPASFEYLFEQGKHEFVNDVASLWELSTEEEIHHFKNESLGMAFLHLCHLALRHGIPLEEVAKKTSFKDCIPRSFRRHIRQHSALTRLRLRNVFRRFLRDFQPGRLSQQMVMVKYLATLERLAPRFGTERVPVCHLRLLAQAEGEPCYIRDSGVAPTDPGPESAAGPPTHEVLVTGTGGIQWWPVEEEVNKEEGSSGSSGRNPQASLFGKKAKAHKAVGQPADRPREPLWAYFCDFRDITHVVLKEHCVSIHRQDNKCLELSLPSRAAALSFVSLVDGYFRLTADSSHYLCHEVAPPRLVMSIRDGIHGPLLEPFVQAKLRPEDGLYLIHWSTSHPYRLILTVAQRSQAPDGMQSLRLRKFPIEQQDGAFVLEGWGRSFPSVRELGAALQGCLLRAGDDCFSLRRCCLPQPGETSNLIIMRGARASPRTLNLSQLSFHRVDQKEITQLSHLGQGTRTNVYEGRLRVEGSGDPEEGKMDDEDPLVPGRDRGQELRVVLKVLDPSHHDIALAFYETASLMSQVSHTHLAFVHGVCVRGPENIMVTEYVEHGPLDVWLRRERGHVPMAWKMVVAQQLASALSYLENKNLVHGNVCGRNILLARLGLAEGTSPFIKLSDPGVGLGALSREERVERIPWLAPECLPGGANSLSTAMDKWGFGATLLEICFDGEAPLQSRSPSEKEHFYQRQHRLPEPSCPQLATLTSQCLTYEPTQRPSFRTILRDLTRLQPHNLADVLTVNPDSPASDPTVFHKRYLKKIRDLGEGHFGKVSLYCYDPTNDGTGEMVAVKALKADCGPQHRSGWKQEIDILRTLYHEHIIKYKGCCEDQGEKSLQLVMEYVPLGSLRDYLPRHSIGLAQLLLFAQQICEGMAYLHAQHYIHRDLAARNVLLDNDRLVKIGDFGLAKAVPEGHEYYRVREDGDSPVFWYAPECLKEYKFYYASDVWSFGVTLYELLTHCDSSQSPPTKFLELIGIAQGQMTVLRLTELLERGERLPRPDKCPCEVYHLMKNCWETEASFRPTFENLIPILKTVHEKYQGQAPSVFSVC

Consider `Cn1c(=O)n(C2CCC(=O)NC2=O)c2ccc(-c3ccc(N4CCN(Cc5ccc(-c6cccc(Nc7ccc8ncc(C(=O)NC9CC9)n8n7)c6)nc5)CC4)cc3)cc21` (stereo not drawn) [Example K415], for which the DC50 at TYK2 [1] is over 100 nM; on TYK2 [2] it was over 100 nM; on TYK2 [3] it was 1 to 10 nM.
For the compound `CNc1cc(Nc2cccn(-c3ccc(C(=O)N4CCC5(CN(CC#Cc6ccc7c(c6)n(C)c(=O)n7C6CCC(=O)NC6=O)C5)C4)cn3)c2=O)nn2c(C(=O)N[C@@H]3C[C@@H]3F)cnc12` (stereo partly drawn) [Example K416], the 50% degradation concentration (DC50) on TYK2 [1], at TYK2 [2] and at TYK2 [3] was over 100 nM throughout.
With `CNc1cc(Nc2cccn(-c3ccc(C(=O)N4CCN(CC#Cc5ccc6c(c5)n(C)c(=O)n6C5CCC(=O)NC5=O)CC4)cn3)c2=O)nn2c(C(=O)N[C@@H]3C[C@@H]3F)cnc12` (stereo partly drawn) [Example K417], the 50% degradation concentration (DC50) at TYK2 [1], at TYK2 [2] and on TYK2 [3] was over 100 nM in each case.
On to `CNc1cc(Nc2cccn(-c3ccc(C(=O)N4CC5(CC(CN6CCN(c7ccc8c(c7)n(C)c(=O)n8C7CCC(=O)NC7=O)CC6)CO5)C4)cn3)c2=O)nn2c(C(=O)N[C@@H]3C[C@@H]3F)cnc12` (stereo partly drawn) [Example K418], for which the DC50 is under 1 nM on TYK2 [1], over 100 nM on TYK2 [2] and over 100 nM at TYK2 [3].
Turning to `CNc1cc(Nc2cccn(-c3ccc(C(=O)N4CC(N5CCN(c6ccc7c(c6)n(C)c(=O)n7C6CCC(=O)NC6=O)CC5)C4)cn3)c2=O)nn2c(C(=O)N[C@@H]3C[C@@H]3F)cnc12` (stereo partly drawn) [Example K419], the results for the DC50 at TYK2 [1], on TYK2 [2] and at TYK2 [3] were under 1 nM, over 100 nM and over 100 nM, respectively.
With `CNc1cc(Nc2cccn(-c3ccc(C(=O)N4CC5(CN(CCC#Cc6ccc7c(c6)n(C)c(=O)n7C6CCC(=O)NC6=O)CCO5)C4)cn3)c2=O)nn2c(C(=O)N[C@@H]3C[C@@H]3F)cnc12` (stereo partly drawn) [Example K420], the DC50 on TYK2 [1] is under 1 nM; on TYK2 [2] it was over 100 nM; on TYK2 [3] it was over 100 nM.
On to `CNc1cc(Nc2cccn(-c3ccc(C(=O)N4CCC(OCC#Cc5cccc6c5n(C)c(=O)n6C5CCC(=O)NC5=O)CC4)cn3)c2=O)nn2c(C(=O)N[C@@H]3C[C@@H]3F)cnc12` (stereo partly drawn) [Example K421], for which the DC50 on TYK2 [1] was 1 to 10 nM; on TYK2 [2], over 100 nM; at TYK2 [3], over 100 nM.
In the case of `CNc1cc(Nc2cccn(-c3ccc(C(=O)N4CCC(CN5CCCN(c6ccc(-c7ccc8c(c7)n(C)c(=O)n8C7CCC(=O)NC7=O)cn6)CC5)CC4)cn3)c2=O)nn2c(C(=O)N[C@@H]3C[C@@H]3F)cnc12` (stereo partly drawn) [Example K422], the results for the DC50 at TYK2 [1], at TYK2 [2] and at TYK2 [3] were under 1 nM, over 100 nM and over 100 nM, respectively.
Turning to `CNc1cc(Nc2cccn(-c3ccc(C(=O)N4CCN(C(=O)C5CC(N6CCC(OCCCc7ccc8c(c7)n(C)c(=O)n8C7CCC(=O)NC7=O)CC6)C5)CC4)cn3)c2=O)nn2c(C(=O)N[C@@H]3C[C@@H]3F)cnc12` (stereo partly drawn) [Example K423], the half-maximal degradation concentration (DC50) is 1 to 10 nM on TYK2 [1], over 100 nM on TYK2 [2] and over 100 nM at TYK2 [3].
On to `CNc1cc(Nc2cccn(-c3ccc(C(=O)C4CCC(C5CCN(c6ccc7c(c6)n(C)c(=O)n7C6CCC(=O)NC6=O)C5)CN4)cn3)c2=O)nn2c(C(=O)N[C@@H]3C[C@@H]3F)cnc12` (stereo partly drawn) [Example K424], for which the DC50 on TYK2 [1], at TYK2 [2] and on TYK2 [3] was over 100 nM throughout.
For the compound `CNc1cc(Nc2cccn(-c3ccc(C(=O)C4CCC([C@H]5CCN(c6ccc7c(c6)n(C)c(=O)n7C6CCC(=O)NC6=O)C5)CN4)cn3)c2=O)nn2c(C(=O)N[C@@H]3C[C@@H]3F)cnc12` (stereo partly drawn) [Example K425], the DC50 at TYK2 [1], at TYK2 [2] and at TYK2 [3] was over 100 nM throughout.
`CNc1cc(Nc2cccn(-c3ccc(C(=O)N4CCC5(CCCN(CCc6ccc7c(c6)n(C)c(=O)n7C6CCC(=O)NC6=O)C5)C4)cn3)c2=O)nn2c(C(=O)N[C@@H]3C[C@@H]3F)cnc12` (stereo partly drawn) [Example K426]: the 50% degradation concentration (DC50) at TYK2 [1], at TYK2 [2] and on TYK2 [3] was over 100 nM throughout.
Turning to `CNc1cc(Nc2cccn(-c3ccc(C(=O)N(C)C4CCC(N5CCN(c6ccc7c(c6)n(C)c(=O)n7C6CCC(=O)NC6=O)CC5)CC4)cn3)c2=O)nn2c(C(=O)N[C@@H]3C[C@@H]3F)cnc12` (stereo partly drawn) [Example K427], the DC50 is under 1 nM at TYK2 [1], over 100 nM on TYK2 [2] and over 100 nM on TYK2 [3].
As for `CNc1cc(Nc2cccn(-c3ccc(C(=O)NC4CCC(CN(C)C5CCN(Cc6ccc7c(c6)n(C)c(=O)n7C6CCC(=O)NC6=O)CC5)CC4)cn3)c2=O)nn2c(C(=O)N[C@@H]3C[C@@H]3F)cnc12` (stereo partly drawn) [Example K428], the DC50 at TYK2 [1] is under 1 nM; at TYK2 [2], over 100 nM; on TYK2 [3], over 100 nM.
As for `CNc1cc(Nc2cccn(-c3ccc(C(=O)N4CC(N5CCN(CCc6ccc7c(c6)n(C)c(=O)n7C6CCC(=O)NC6=O)CC5)C4)cn3)c2=O)nn2c(C(=O)N[C@@H]3C[C@@H]3F)cnc12` (stereo partly drawn) [Example K429], the DC50 was under 1 nM at TYK2 [1], over 100 nM on TYK2 [2] and 1 to 10 nM at TYK2 [3].
On to `CNc1cc(Nc2cccn(-c3ccc(C(=O)N[C@H]4CC[C@H](CN5CCC6(CC5)CN(Cc5cccc7c5n(C)c(=O)n7C5CCC(=O)NC5=O)C6)CC4)cn3)c2=O)nn2c(C(=O)N[C@@H]3C[C@@H]3F)cnc12` (stereo partly drawn) [Example K430], for which the DC50 on TYK2 [1] was under 1 nM; at TYK2 [2] it was over 100 nM; on TYK2 [3], 1 to 10 nM.
`CNc1cc(Nc2cccc(-c3ccc(CN4CCC(C#Cc5cccc6c5n(C)c(=O)n6C5CCC(=O)NC5=O)CC4)cn3)c2)nn2c(C(=O)N[C@@H]3C[C@@H]3F)cnc12` (stereo partly drawn) [Example K431]: the results for the 50% degradation concentration (DC50) at TYK2 [1], at TYK2 [2] and on TYK2 [3] were 1 to 10 nM, over 100 nM and over 100 nM, respectively.
In the case of `CNc1cc(Nc2cccc(-c3ccc(CN4CCN(CC#Cc5cccc6c5n(C)c(=O)n6C5CCC(=O)NC5=O)CC4)cn3)c2)nn2c(C(=O)N[C@@H]3C[C@@H]3F)cnc12` (stereo partly drawn) [Example K432], the 50% degradation concentration (DC50) on TYK2 [1] is under 1 nM; on TYK2 [2] it was over 100 nM; on TYK2 [3] it was over 100 nM.
Turning to `Cn1c(=O)n(C2CCC(=O)NC2=O)c2cccc(C#CCN3CCN(Cc4ccc(-c5cccc(Nc6ccc7ncc(C(=O)NC8CC8)n7n6)c5)nc4)CC3)c21` (stereo not drawn) [Example K433], the half-maximal degradation concentration (DC50) on TYK2 [1], at TYK2 [2] and at TYK2 [3] was over 100 nM each time.
Regarding `CNc1cc(Nc2cccc(-c3ccc(CN4CCN(C5CCN(c6ccc7c(c6)n(C)c(=O)n7C6CCC(=O)NC6=O)CC5)CC4)cn3)c2)nn2c(C(=O)N[C@@H]3C[C@@H]3F)cnc12` (stereo partly drawn) [Example K435], the DC50 at TYK2 [1] was under 1 nM; on TYK2 [2], over 100 nM; at TYK2 [3], over 100 nM.
Turning to `CNc1cc(Nc2cccc(-c3ccc(CN4CCC(C#Cc5ccc6c(c5)n(C)c(=O)n6C5CCC(=O)NC5=O)CC4)cn3)c2)nn2c(C(=O)N[C@@H]3C[C@@H]3F)cnc12` (stereo partly drawn) [Example K436], the DC50 on TYK2 [1] is under 1 nM; on TYK2 [2], over 100 nM; at TYK2 [3], over 100 nM.
On to `CNc1cc(Nc2cccn(-c3ccc(CNCc4ccc(N5CCC(N6CCC(c7ccc8c(c7)n(C)c(=O)n8C7CCC(=O)NC7=O)C6)CC5)cc4)cn3)c2=O)nn2c(C(=O)N[C@@H]3C[C@@H]3F)cnc12` (stereo partly drawn) [Example K437], for which the DC50 was under 1 nM on TYK2 [1], over 100 nM on TYK2 [2] and over 100 nM at TYK2 [3].
`CNc1cc(Nc2cccn(-c3ccc(C(=O)N(C)CCCOC4CCN(c5ccc6c(c5)n(C)c(=O)n6C5CCC(=O)NC5=O)CC4)cn3)c2=O)nn2c(C(=O)N[C@@H]3C[C@@H]3F)cnc12` (stereo partly drawn) [Example K438]: the DC50 on TYK2 [1] was 1 to 10 nM; at TYK2 [2], over 100 nM; on TYK2 [3], over 100 nM.
Turning to `CNc1cc(Nc2cccn(-c3ccc(C(=O)N(C)C4CCN(c5ccc(-c6ccc7c(c6)n(C)c(=O)n7C6CCC(=O)NC6=O)cc5)C4)cn3)c2=O)nn2c(C(=O)N[C@@H]3C[C@@H]3F)cnc12` (stereo partly drawn) [Example K439], the half-maximal degradation concentration (DC50) on TYK2 [1] is under 1 nM; at TYK2 [2], over 100 nM; at TYK2 [3], over 100 nM.
Turning to `CNc1cc(Nc2cccn(-c3ccc(C(=O)N4CCN(CCOc5cccc(-c6ccc7c(c6)n(C)c(=O)n7C6CCC(=O)NC6=O)c5)CC4)cn3)c2=O)nn2c(C(=O)N[C@@H]3C[C@@H]3F)cnc12` (stereo partly drawn) [Example K440], the DC50 is under 1 nM at TYK2 [1], over 100 nM at TYK2 [2] and over 100 nM on TYK2 [3].
For the compound `CNc1cc(Nc2cccn(-c3ccc(C(=O)N4CCC5(CCN(c6ncc(C#Cc7ccc8c(c7)n(C)c(=O)n8C7CCC(=O)NC7=O)cn6)C5=O)C4)cn3)c2=O)nn2c(C(=O)N[C@@H]3C[C@@H]3F)cnc12` (stereo partly drawn) [Example K441], the 50% degradation concentration (DC50) at TYK2 [1] was under 1 nM; on TYK2 [2] it was over 100 nM; on TYK2 [3], over 100 nM.
For the compound `CNc1cc(Nc2cccn(-c3ccc(C(=O)N4CCC(OC5CC(c6cccc7c6n(C)c(=O)n7C6CCC(=O)NC6=O)C5)CC4)cn3)c2=O)nn2c(C(=O)N[C@@H]3C[C@@H]3F)cnc12` (stereo partly drawn) [Example K442], the DC50 at TYK2 [1] was under 1 nM; on TYK2 [2] it was over 100 nM; at TYK2 [3], over 100 nM.
Turning to `CNc1cc(Nc2cccn(-c3ccc(C(=O)NC4CCC(C(=O)N5CCC6(CN(CC#Cc7ccc8c(c7)n(C)c(=O)n8C7CCC(=O)NC7=O)C6)C5)CC4)cn3)c2=O)nn2c(C(=O)N[C@@H]3C[C@@H]3F)cnc12` (stereo partly drawn) [Example K444], the DC50 at TYK2 [1], on TYK2 [2] and on TYK2 [3] was 1 to 10 nM in each case.
For the compound `CNc1cc(Nc2cccn(-c3ccc(C(=O)N4CCC(CN(C)C5CCN(c6ccc7c(c6)n(C)c(=O)n7C6CCC(=O)NC6=O)CC5)C4)cn3)c2=O)nn2c(C(=O)N[C@@H]3C[C@@H]3F)cnc12` (stereo partly drawn) [Example K445], the DC50 is under 1 nM on TYK2 [1], over 100 nM on TYK2 [2] and over 100 nM on TYK2 [3].
